Measured values: patent publication US20040018501A1, “Methods and systems for analyzing complex biological systems” (priority 2001, published 2004)

Test system: Saccharomyces cerevisiae wild type strain BY4743
Assay: AF1 yeast metabolite analysis by GC-MS and LC-MS
Format: cell-based
Conditions: for Fold Change, NacetylLglutamate: detected metabolite NacetylLglutamate; for Fold Change, NacetylLornithine: detected metabolite NacetylLornithine; for Fold Change, nicotinic acid: detected metabolite nicotinic acid; for Fold Change, nopaline: detected metabolite nopaline; for Fold Change, oleic acid: detected metabolite oleic acid; for Fold Change, ornithine: detected metabolite ornithine; for Fold Change, phenylalanine: detected metabolite phenylalanine; for Fold Change, phosphoenolpyruvate: detected metabolite phosphoenolpyruvate; for Fold Change, pipecolic acid: detected metabolite pipecolic acid; for Fold Change, proline: detected metabolite proline; for Fold Change, pyridoxine: detected metabolite pyridoxine; for Fold Change, selenoDLmethionine: detected metabolite selenoDLmethionine; for Fold Change, serine: detected metabolite serine; for Fold Change, sugar-phosphate: detected metabolite sugar-phosphate; for Fold Change, tetradecanoic acid: detected metabolite tetradecanoic acid; for Fold Change, threonine/homoserin: detected metabolite threonine/homoserin; for Fold Change, thymine: detected metabolite thymine; for Fold Change, tryptophan: detected metabolite tryptophan; for Fold Change, tyrosine: detected metabolite tyrosine; for Fold Change, urocanic acid: detected metabolite urocanic acid; for Fold Change, valine: detected metabolite valine; for Fold Change, zeatin: detected metabolite zeatin

Compound: CC[C@@H]([C@H](C)O)n1ncn(-c2ccc(N3CCN(c4ccc(OC[C@@H]5CO[C@@](Cn6cncn6)(c6ccc(F)cc6F)C5)cc4)CC3)cc2)c1=O [Posaconazole]
- Fold Change of alanine (GC): 1.035
- Fold Change of asparagine (GC): 0.145
- Fold Change of aspartic acid (GC): −0.071
- Fold Change of campesterol (GC): 0
- Fold Change of desmosterol (GC): 0
- Fold Change of disaccaride1 (GC): 0.04733
- Fold Change of disaccaride2 (GC): 0.313
- Fold Change of disaccaride3 (GC): 0.3407
- Fold Change of ergosterol (GC): 0.808
- Fold Change of fucosterol (GC): 6.722
- Fold Change of glutamine (GC): 0.6439
- Fold Change of glycanopyrose (GC): 1.594
- Fold Change of glycerol (GC): 0.1873
- Fold Change of glycine (GC): 0.08267
- Fold Change of hexadecanoic acid (GC): −0.01867
- Fold Change of iso citric acid (GC): 0.4
- Fold Change of isoleucine (GC): 0.1023
- Fold Change of lanosterol (GC): 7.464
- Fold Change of leucine (GC): 0.334
- Fold Change of lysine (GC): 0.1586
- Fold Change of malic acid (GC): 0.2942
- Fold Change of biotin (LC): 0
- Fold Change of folic acid (LC): 0
- Fold Change, NacetylDglucosamine (detected metabolite NacetylDglucosamine, platform nLC): 0
- Fold Change, NacetylLglucosamine (detected metabolite NacetylLglucosamine, platform pLC): 0
- Fold Change, NacetylLglutamate (platform nLC): −0.07165
- Fold Change, NacetylLglutamate (platform pLC): 0
- Fold Change, NacetylLornithine (platform nLC): 0
- Fold Change, NacetylLornithine (platform pLC): 0.1338
- Fold Change, TMS mevalonic acid lactone (detected metabolite TMS mevalonic acid lactone, platform GC): −0.3118
- Fold Change, mevalonic acid lactone (detected metabolite mevalonic acid lactone, platform GC): 0.5555
- Fold Change, mevalonic lactone (detected metabolite mevalonic lactone, platform pLC): −0.08368
- Fold Change, niacinamide (detected metabolite niacinamide, platform pLC): 0
- Fold Change, nicotinic acid (platform nLC): 1.421
- Fold Change, nicotinic acid (platform pLC): −0.8142
- Fold Change, nopaline (platform nLC): 0.7554
- Fold Change, nopaline (platform pLC): 0
- Fold Change, octadecanoic acid (detected metabolite octadecanoic acid, platform GC): 0.321
- Fold Change, oleic acid (platform GC): −0.5057
- Fold Change, oleic acid (platform nLC): 0.5606
- Fold Change, ornithine2 (detected metabolite ornithine2, platform GC): −0.1383
- Fold Change, ornithine3 (detected metabolite ornithine3, platform GC): 0.041
- Fold Change, ornithine (platform nLC): 2.314
- Fold Change, ornithine (platform pLC): 0.4314
- Fold Change, orotic acid (detected metabolite orotic acid, platform nLC): 0
- Fold Change, palmiteliadic acid (detected metabolite palmiteliadic acid, platform GC): −0.2453
- Fold Change, palmitic acid (detected metabolite palmitic acid, platform nLC): 0.1518
- Fold Change, phenylalanine (platform GC): 0.06069
- Fold Change, phenylalanine (platform nLC): −0.03702
- Fold Change, phenylalanine (platform pLC): −0.1585
- Fold Change, phenylpyruvic acid (detected metabolite phenylpyruvic acid, platform nLC): 0
- Fold Change, phosphate (detected metabolite phosphate, platform GC): −0.1833
- Fold Change, phosphoenolpyruvate (platform LC): 0
- Fold Change, phosphoenolpyruvate (platform nLC): 0
- Fold Change, pinitol (detected metabolite pinitol, platform nLC): 0
- Fold Change, pipecolic acid (platform nLC): 0.1806
- Fold Change, pipecolic acid (platform pLC): 0.3444
- Fold Change, progesterone (detected metabolite progesterone, platform pLC): 0
- Fold Change, proline (platform LC): 0.3157
- Fold Change, proline (platform nLC): 0.3147
- Fold Change, pyridoxine (platform nLC): −0.1015
- Fold Change, pyridoxine (platform pLC): −0.239
- Fold Change, pyrimidine (detected metabolite pyrimidine, platform GC): 0.159
- Fold Change, retinoic acid (detected metabolite retinoic acid, platform nLC): 0
- Fold Change, riboflavin (detected metabolite riboflavin, platform pLC): 0
- Fold Change, salicylic/HObenzoic (detected metabolite salicylic/HObenzoic, platform nLC): 0
- Fold Change, selenoDLmethionine (platform nLC): −0.6722
- Fold Change, selenoDLmethionine (platform pLC): −0.7083
- Fold Change, serine (platform nLC): 0.152
- Fold Change, serine (platform pLC): 0.2417
- Fold Change, shikimic acid (detected metabolite shikimic acid, platform nLC): 0
- Fold Change, sinapinic acid (detected metabolite sinapinic acid, platform nLC): 0
- Fold Change, sorbitol/mannitol (detected metabolite sorbitol/mannitol, platform nLC): 0.009121
- Fold Change, squalene (detected metabolite squalene, platform GC): 0.07431
- Fold Change, succinic (detected metabolite succinic, platform nLC): −0.06141
- Fold Change, sucrose (detected metabolite sucrose, platform nLC): 0.1847
- Fold Change, sugar-phosphate (platform nLC): −0.04543
- Fold Change, sugar-phosphate (platform pLC): 0
- Fold Change (detected metabolite sugar?, platform GC): 0.6923
- Fold Change, tetradecanoic acid (platform GC): −0.214
- Fold Change, tetradecanoic acid (platform nLC): 1.029
- Fold Change, thiamine (detected metabolite thiamine, platform pLC): 0
- Fold Change, threonine2 (detected metabolite threonine2, platform GC): 0.457
- Fold Change, threonine3 (detected metabolite threonine3, platform GC): 0.225
- Fold Change, threonine/homoserin (platform nLC): 0.04034
- Fold Change, threonine/homoserin (platform pLC): 0.1437
- Fold Change, thymine (platform nLC): 0
- Fold Change, thymine (platform pLC): 0
- Fold Change, tms glutamine3 (detected metabolite tms glutamine3, platform GC): 0.6709
- Fold Change, tms lysine4 (detected metabolite tms lysine4, platform GC): 0.05667
- Fold Change, tms tyrosine2 (detected metabolite tms tyrosine2, platform GC): 1.228
- Fold Change, tms tyrosine3 (detected metabolite tms tyrosine3, platform GC): 0.1911
- Fold Change, tryptophan (platform nLC): 4.676
- Fold Change, tryptophan (platform pLC): 0
- Fold Change, tyrosine (platform nLC): 0.0282
- Fold Change, tyrosine (platform pLC): 0.1008
- Fold Change, uracil (detected metabolite uracil, platform nLC): −0.2779
- Fold Change, uric acid (detected metabolite uric acid, platform pLC): 0
- Fold Change, uridine (detected metabolite uridine, platform nLC): 0.02855
- Fold Change, urocanic acid (platform nLC): 0
- Fold Change, urocanic acid (platform pLC): 0
- Fold Change, valine (platform GC): 0.345
- Fold Change, valine (platform nLC): 0.0195
- Fold Change, xanthosine(diH2O) (detected metabolite xanthosine(diH2O), platform pLC): 0
- Fold Change, xanthosineDiH2O (detected metabolite xanthosineDiH2O, platform nLC): 0
- Fold Change, zeatin (platform nLC): 0
- Fold Change, zeatin (platform pLC): 0
- Fold Change of 2-ketobutyric acid (nLC): −0.9992
- Fold Change of 2-ketoglutaric (nLC): 11.33
- Fold Change of 3-indolylacetonitri (nLC): −0.9998
- Fold Change of 4-methylcatechol (nLC): 0
- Fold Change of 4aminobutyrate/dimg (nLC): −0.008939
- Fold Change of 5hydroxyLtryptophan (nLC): 0
- Fold Change of 6-benzylaminopurine (nLC): 0
- Fold Change of DLaminoadipic acid (nLC): −0.9935
- Fold Change of abscisic acid (nLC): 0
- Fold Change of aconitic acid (nLC): 1.874
- Fold Change of adenine (nLC): 0
- Fold Change of adenosine (nLC): 128.3
- Fold Change of alanine (nLC): 0.1091
- Fold Change of allantoic acid (nLC): 0.3321
- Fold Change of allantoin (nLC): 5.97
- Fold Change of anthranilic acid (nLC): 0
- Fold Change of arginine (nLC): 0.1707
- Fold Change of argininosuccinate (nLC): 318.3
- Fold Change of asparagine (nLC): 0.006865
- Fold Change of aspartic (nLC): 0.305
- Fold Change of benzoic acid (nLC): 0
- Fold Change of biotin (nLC): −0.9992
- Fold Change of caffeic acid (nLC): −0.49
- Fold Change of catechol (nLC): 0
- Fold Change of cinnamic acid (nLC): 0
- Fold Change of citricanoic/itaconi (nLC): 0
- Fold Change of citrulline (nLC): 1160
- Fold Change of coumaric acid (nLC): 0
- Fold Change of cytidine (nLC): −0.9986
- Fold Change of cytosine (nLC): 0
- Fold Change of decanoic acid (nLC): 0.1263
- Fold Change of diaminopimelic acid (nLC): 0
- Fold Change of dihydrofolic acid (nLC): 0
- Fold Change of estrone (nLC): 0
- Fold Change of farnesol (nLC): 0
- Fold Change of folic acid (nLC): 0
- Fold Change of fumaric/3m2oxobutan (nLC): −0.9997
- Fold Change of gallic acid (nLC): 0.4414
- Fold Change of gibberellic (nLC): 0
- Fold Change of glucosamine6PO4 (nLC): −0.9951
- Fold Change of glutamic/acetylseri (nLC): 0.3222
- Fold Change of glutamine/lysine (nLC): 0.09814
- Fold Change of guanine (nLC): 0
- Fold Change of guanosine (nLC): −0.993
- Fold Change of histidine (nLC): 0
- Fold Change of homogentisic/uric (nLC): 0
- Fold Change of hydrocortisone (nLC): 0
- Fold Change of hypoxanthine (nLC): 0.1751
- Fold Change of indole3pyruvic acid (nLC): 0
- Fold Change of inostol/glucos/sorb (nLC): −0.493
- Fold Change of isocitric/citric/qu (nLC): 1.711
- Fold Change of jasmonic acid (nLC): 0
- Fold Change of kinetin (nLC): 0
- Fold Change of lactic acid (nLC): 0.5987
- Fold Change of lauric acid (nLC): 0.9833
- Fold Change of leucine/isoleucine/ (nLC): 0.03158
- Fold Change of luteolin (nLC): 0
- Fold Change of malic acid (nLC): 0.3101
- Fold Change of malonic acid (nLC): 0
- Fold Change of menthol* (nLC): 0.08121
- Fold Change of methionine (nLC): 0
- Fold Change of 4-aminobenzoic acid (pLC): 0
- Fold Change of 4-methylcatechol (pLC): 0
- Fold Change of 4ambutyrate/dimglyc (pLC): 31.37
- Fold Change of 5hydroxyLtryptophan (pLC): 0
- Fold Change of 6benzylaminopurine (pLC): 0
- Fold Change of DL-aminoadipic acid (pLC): 1.685
- Fold Change of abscisic acid (pLC): 0
- Fold Change of adenine (pLC): −0.0145
- Fold Change of adenosine (pLC): 0
- Fold Change of alanine/sarcosine (pLC): 0.1013
- Fold Change of allantoic acid (pLC): 0
- Fold Change of anthranilic acid (pLC): 0
- Fold Change of arginine (pLC): 0.03383
- Fold Change of argininosuccinate (pLC): 0
- Fold Change of asparagine (pLC): 0.4302
- Fold Change of aspartic acid (pLC): 0.3626
- Fold Change of caffeine (pLC): 0
- Fold Change of citric acid TME (pLC): 0
- Fold Change of citrulline (pLC): 0.1011
- Fold Change of cytidine (pLC): 0
- Fold Change of cytosine (pLC): 1135
- Fold Change of diaminopimelic acid (pLC): 0
- Fold Change of dihydrofolic acid (pLC): 0
- Fold Change of dipicolinic acid (pLC): 0
- Fold Change of glucosamine (pLC): 0
- Fold Change of glucosamine6PO4 (pLC): 0
- Fold Change of glutamate (pLC): 0.3769
- Fold Change of glutamine/lysine (pLC): 0.303
- Fold Change of glutathione (pLC): 0.0101
- Fold Change of guanosine (pLC): 0.04655
- Fold Change of histidine (pLC): 0
- Fold Change of hydrocortisone (pLC): 0
- Fold Change of hypoxanthine (pLC): 0.135
- Fold Change of itaconic acid dimes (pLC): 0
- Fold Change of kinetin (pLC): 0
- Fold Change of leucine/isoleucine/ (pLC): 0.04937
- Fold Change of mannitol (pLC): 0.3919
- Fold Change of methionine (pLC): −0.3997
